Like-named read-outs stand apart in the source and are kept apart here.
Experiments:
CaCo-2 cells = assay: Inhibition of CaCo-2 colon carcinoma cell proliferation (WST-1, Example 1); type: cell-based; details: Homo sapiens, 24 hours incubation
Experimental: The effect of N,N,-diethyl-8,8-dipropyl-2-azaspiro[4,5]decane-2-propanamine dimaleate (Compound 1) on proliferation of human colon carcinoma cells T84 and CaCo-2 was evaluated in the following manner. Cell proliferation was measured by WST-1 dye conversion to Formazan assay using the proliferation kit from BioVision, CA. The procedure used was essentially as described in the manufacture's instructions. Briefly, cells were grown for 7 days until they formed semi-confluent monolayers. On day 7, cells were trypsinized and resuspended in 96-well plates at a concentration of approximately 40,000 cells/well and allowed to grow for 24 hours at 37° C.
Subsequently, fresh media containing increasing concentrations of Compound 1, as indicated in the FIG. 1, were added and assay plates were further incubated for an additional period of 24 hours. A solution of 5 μl of WST-1 dye per well was added and plates were read after 4 hours at 440 and 600 nm using an ELISA plate reader. The absorbance at 440 minus that at 600 nm is directly proportion to the number of proliferating cells. All samples were measured in triplicate and results were expressed as an average of three determinations.

HUVEC = HUVEC growth inhibition assay (crystal violet); type: cell-based; details: Homo sapiens, 72 hours, read-out: IC50 Concentration, Growth Inhibition
Experimental: HUVEC (1.5×10^3) are plated in a 96-well plate in 100 μl of EBM-2 (Clonetic # CC3162). After 24 hours (day 0), a test solution of Compound 1 (100 μl) is added to each well at 2× the desired concentration (5-7 concentration levels) in EBM-2 medium. On day 0, one plate is stained with 0.5% crystal violet in 20% methanol for 10 minutes, rinsed with water, and air-dried. The remaining plates are incubated for 72 hours at 37° C. After 72 hours, plates are stained with 0.5% crystal violet in 20% methanol, rinsed with water and air-dried. The stain is eluted with 1:1 solution of ethanol: 0.1 M sodium citrate (including day 0 plate), and absorbance is measured at 540 nm with an ELISA reader (Dyriatech Laboratories). Day 0 absorbance is subtracted from the 72 hour plates and data is plotted as percentage of control proliferation (vehicle treated cells).

PC-3 = assay: NCI in vitro SRB assay, Prostate Cancer; type: cell-based; details: for CC50 / GI50: Homo sapiens
Experimental: (§1) An in vitro assay which tested the ability of N,N,-diethyl-8,8-dipropyl-2-azaspiro[4,5]decane-2-propanamine dimaleate (Compound 1) to inhibit the growth of known cancer cell lines was performed by the National Cancer Institute in accordance with standard procedures. See: Lin, Z. X., Hoult, J. R., and Raman, A. Sulphorhodamine B assay for measuring proliferation of a pigmented melanocyte cell line and its application to the evaluation of crude drugs used in the treatment of vitiligo. J Ethnopharmacol. 66: 141-150, 1999. Briefly, selected tumor cell lines were cultured in media containing five different concentrations of Compound 1. After 48 hours of continuous exposure, a sulforhodamine B (SRB) assay was used to estimate cell viability or growth via optical measurements.
(§2) From the measurements, the following values were determined: 1) the concentration of Compound 1 at which a tumor cell growth inhibition of 50% (relative to control) occurs (GI50), 2) the concentration of Compound 1 at which no growth occurs (total growth inhibition, TGI), and 3) the concentration of Compound 1 at which the […] (LC 50). […] FIG. 6 illustrates, graphically, tumor cell growth as a function of Compound 1 concentration of the scanned tumor cell lines.

DU-145 = assay: NCI in vitro SRB assay, Prostate Cancer; type: cell-based; details: for GI50: Homo sapiens
Experimental: as §1, §2

T84 cells = assay: Induction of apoptosis, DNA fragmentation analysis, T84; type: cell-based, human; details: 12 hours treatment
Experimental: T84, CaCo-2 and HUVEC cells, respectively, were grown in 100 mm dishes for 7-9 days, culture media for HUVEC was EGM-2 (Clonetics, BioWhitaker Co.), until they reached semi-confluency. Cell monolayers were then treated for 12 hours (CaCo-2 and T84) and 16 hours (HUVEC), respectively, at the indicated concentrations of N,N,-diethyl-8,8-dipropyl-2-azaspiro[4,5]decane-2-propanamine dimaleate (Compound 1) in culture media. Cells were collected by trypsinization and the apoptotic DNA was isolated from these cells following the instructions of the DNA fragmentation analysis kit (Boehringer Mannheim Corp., Indianapolis, Ind.). The apoptotic DNA was evaluated using 1.5% agarose gel electrophoresis followed by staining with ethidium bromide. M denotes the lane containing molecular weight markers of DNA.

NCI-H522 = assay: NCI in vitro SRB assay, Non-Small Cell Lung Cancer; type: cell-based; details: for CC50 / GI50: Homo sapiens
Experimental: as §1, §2

[1] = NCI-H522, Log10 conc -4.0 Moles/L
[2] = NCI-H522, Log10 conc -5.0 Moles/L
[3] = NCI-H522, Log10 conc -6.0 Moles/L
[4] = NCI-H522, Log10 conc -7.0 Moles/L
[5] = NCI-H522, Log10 conc -8.0 Moles/L

## CCCC1(CCC)CCC2(CCN(CCCN(CC)CC)C2)CC1.O=C(O)/C=C\C(=O)O.O=C(O)/C=C\C(=O)O [Compound 1, N,N,-diethyl-8,8-dipropyl-2-azaspiro[4,5]decane-2-propanamine dimaleate]
CaCo-2 cells
  IC50: 625 to 1250 nM
HUVEC
  IC50: 2050 nM
PC-3; PC-3, read-out: LC50
  CC50: 6680 nM
PC-3; PC-3, read-out: Log10 LC50 (converted)
  CC50: 6610 nM
PC-3; PC-3, read-out: GI50
  GI50: 1710 nM
PC-3; PC-3, read-out: Log10 GI50 (converted)
  GI50: 1700 nM
PC-3; PC-3
  Log10 TGI: −5.47
  TGI: 3380 nM
PC-3; PC-3, Log10 conc -4.0 Moles/L
  Mean Optical Densities: 0.037
  Percent Growth: −90%
PC-3; PC-3, Log10 conc -5.0 Moles/L
  Mean Optical Densities: 0.073
  Percent Growth: −80%
PC-3; PC-3, Log10 conc -6.0 Moles/L
  Mean Optical Densities: 1.953
  Percent Growth: 89%
PC-3; PC-3, Log10 conc -7.0 Moles/L
  Mean Optical Densities: 2.067
  Percent Growth: 96%
PC-3; PC-3, Log10 conc -8.0 Moles/L
  Mean Optical Densities: 2.116
  Percent Growth: 99%
DU-145
  Log10 TGI: −5.51
  TGI: 3090 nM
DU-145; read-out: GI50
  GI50: 1700 nM
DU-145; read-out: Log10 GI50 (converted)
  GI50: 1700 nM
DU-145; Log10 conc -4.0 Moles/L
  Mean Optical Densities: −0.032
  Percent Growth: −100%
DU-145; Log10 conc -5.0 Moles/L
  Mean Optical Densities: 0.005
  Percent Growth: −98%
DU-145; Log10 conc -6.0 Moles/L
  Mean Optical Densities: 0.733
  Percent Growth: 94%
DU-145; Log10 conc -7.0 Moles/L
  Mean Optical Densities: 0.766
  Percent Growth: 101%
DU-145; Log10 conc -8.0 Moles/L
  Mean Optical Densities: 0.728
  Percent Growth: 93%
T84 cells
  DNA ladder formation (apoptosis): formation of DNA laddering in a dose-dependent manner
NCI-H522; NCI-H522, read-out: LC50
  CC50: > 100000 nM
NCI-H522; NCI-H522, read-out: Log10 LC50 (converted)
  CC50: > 100000 nM
NCI-H522; NCI-H522, read-out: GI50
  GI50: 1180 nM
NCI-H522; NCI-H522, read-out: Log10 GI50 (converted)
  GI50: 1170 nM
NCI-H522; NCI-H522
  Log10 TGI: −5.22
  TGI: 6050 nM
NCI-H522; [1]
  Mean Optical Densities: 0.099
  Percent Growth: −7%
NCI-H522; [2]
  Mean Optical Densities: 0.091
  Percent Growth: −15%
NCI-H522; [3]
  Mean Optical Densities: 0.347
  Percent Growth: 55%
NCI-H522; [4]
  Mean Optical Densities: 0.531
  Percent Growth: 97%
NCI-H522; [5]
  Mean Optical Densities: 0.518
  Percent Growth: 94%
